The record followed here is patent US20240246941A1, “SUBSTITUTED 4-(3-AMINOPROP-1-YL)AMINOQUINOLINE ANALOGS AS MODULATORS OF MELANOMA-ASSOCIATED ANTIGEN 11 UBIQUITIN LIGASE” (ST. JUDE CHILDREN'S RESEARCH HOSPITAL, INC., priority 2020, published 2024).

Sequence of interaction between GST-MAGEA11 MHD and FAM-PCF11_4 peptide (MAGE-A11:PCF11) (P43364 218-429): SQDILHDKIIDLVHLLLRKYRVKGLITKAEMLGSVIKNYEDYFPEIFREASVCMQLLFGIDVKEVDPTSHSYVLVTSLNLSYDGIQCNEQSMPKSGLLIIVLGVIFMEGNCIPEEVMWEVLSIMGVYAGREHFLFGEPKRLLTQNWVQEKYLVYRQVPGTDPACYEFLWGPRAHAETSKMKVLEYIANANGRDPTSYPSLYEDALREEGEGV

The first assay deals with interaction between GST-MAGEA11 MHD and FAM-PCF11_4 peptide (MAGE-A11:PCF11) (Homo sapiens (Human), UniProt P43364). Briefly: TR-FRET dose response competition assay for disruption of MAGE-A11:PCF11 binding. Particulars: Dose response TR-FRET screening of nine scaffold groups against MAGE-A11:PCF11; read-out: consensus IC50. Put shortly:
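Competition TR-FRET at room temperature in 50 mM Tris pH 7.5, 20 mM MgCl2, 0.1 mg/ml BSA, 1 mM DTT: final 5 nM GST-MAGEA11 MHD, 5 nM Tb-anti-GST, 200 nM FAM-PCF11_4, 90 min. Ratio 520/490 nm converted to % inhibition; IC50 from sigmoidal fit.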
For orientation: TR-FRET usually uses a lanthanide donor and a delayed reading to cut background.
With `COC(=O)c1cccc(NC2=C(Cl)C(=O)c3ccccc3C2=O)c1` [SJ000024926-1], the IC50 (usually the concentration at which inhibition is half-maximal) was 69.9 µM.
The same measure, in the same setting: with `c1cc(CNCCCNc2ccnc3cc(-c4cccc5ccccc45)ccc23)c2c(c1)OCO2` [SJ000311276-1] the figure was 31.2 µM; with `CCn1c2ccccc2c2cc(C(C)NC=O)ccc21` (stereo not drawn) [SJ000461805-1], 69.9 µM.
In the case of `COc1cccc(Oc2ccc3c(NCCCNCc4cccc(OC)c4O)ccnc3c2)c1` [SJ000311215-1], the IC50 stood at 69.9 µM.
For the compound `COc1ccccc1CNCCCNc1ccnc2cc(Cl)ccc12` [SJ000311185-1], the IC50 was determined as 69.9 µM.
Same read-out and setting: to `NC1=C(Nc2ccc(Cl)cc2)C(=O)c2ccccc2C1=O` [SJ000562630-1] belongs 53.8 µM.
The same measure, in the same setting: to `c1cc(CNCCCNc2ccnc3cc(-c4ccc5c(c4)OCO5)ccc23)c2c(c1)OCO2` [SJ000311292-1] belongs 30.5 µM.
Still for that read-out and setting: to `CCOC(=O)c1ccc(NC2=C(N)C(=O)c3ccccc3C2=O)cc1` [SJ000032711-1] belongs 69.9 µM.
Regarding `COc1ccc(-c2cc3ncn(CC(=O)NCc4ccc(C)cc4)c(=O)c3s2)cc1` [SJ000445282-1], the IC50 came out at 69.9 µM.
Take `CCCOc1ccc(-c2nc3c(=O)n(C)c(=O)n(C)c3[nH]2)cc1` [SJ000205042-1]: the IC50 is 69.9 µM.
With `Fc1ccc(Cc2ccc3c(NCCCNCc4cccc5c4OCO5)ccnc3c2)c(Cl)c1` [SJ000311324-1], the IC50 is 20.6 µM.
In the case of `CC(=O)NC1=C(Cl)C(=O)c2ccccc2C1=O` [SJ000067071-3], the IC50 was determined as 69.9 µM.
The same measure, in the same setting: to `COc1ccc(C2Nc3ccccc3C(=O)N2Cc2ccccc2)cc1COc1ccccc1F` (stereo not drawn) [SJ000295328-2] belongs 69.9 µM.
Consider `COc1ccc(F)cc1CNCCCNc1ccnc2cc(Cc3ccc(F)cc3)ccc12` [SJ000311245-1], for which the IC50 stood at 35.1 µM.
For `COc1ccc(-c2cc3nc[nH]c(=O)c3s2)cc1` [SJ000296726-1], the IC50 worked out at 69.9 µM.
`COc1ccc(F)cc1CNCCCNc1ccnc2cc(Oc3ccccc3OC)ccc12` [SJ000311213-1]: the IC50 was determined as 69.9 µM.
On the same count and under the same terms, with `CCCCn1c(=O)[nH]c(=O)c2c1nc(-c1ccc(OC)c(C)c1)n2C` [SJ000425256-1] the figure was 69.9 µM.
Still for that read-out and setting: to `C=CCOc1ccc(-c2nc3c(c(=O)[nH]c(=O)n3Cc3ccccc3)n2CCC)cc1Br` [SJ000379301-1] belongs 69.9 µM; to `CCCN1C(=O)c2ccccc2NC1c1ccc(O)c(OCC)c1` (stereo not drawn) [SJ000019510-1], 69.9 µM.
On the same count and under the same terms, with `N#CCCn1cnc2cc(-c3ccc(Br)cc3)sc2c1=O` [SJ000397713-1] the figure was 69.9 µM.
As for `CC(C)(C)c1ccc(Oc2ccc3c(NCCCNCc4cccc5c4OCO5)ccnc3c2)cc1` [SJ000311236-1], the IC50 was 8.67 µM.
Take `O=C1C(Cl)=C(N2CCN(S(=O)(=O)c3ccc(F)cc3)CC2)C(=O)c2ccccc21` [SJ000038882-1]: the IC50 came out at 69.9 µM.
Regarding `FC(F)(F)Oc1ccc(CNCCCNc2ccnc3cc(Cl)ccc23)cc1` [SJ000521025-1], the IC50 was 69.9 µM.
The same measure, in the same setting: with `COc1cccc(OCc2cc(C3Nc4ccccc4C(=O)N3Cc3ccccc3)ccc2OC)c1` (stereo not drawn) [SJ000295704-1] the figure was 69.9 µM; with `CC(C)(C)c1ccc(O)c(CNCCCNc2ccnc3cc(Cl)ccc23)c1` [SJ000311193-1], 30.4 µM.
Regarding `CCOP(=O)(OCC)c1nc(-c2ccc(Cl)cc2)oc1N1CCOCC1` [SJ000090230-1], the IC50 turned out to be 69.9 µM.
For `FC(F)(F)c1ccc2c(NCCCNCc3ccccc3)ccnc2c1` [SJ000361107-1], the IC50 turned out to be 69.9 µM.
As to `CCCN1C(=O)c2ccccc2NC1c1ccc(Cl)c(Cl)c1` (stereo not drawn) [SJ000296071-1], the concentration for half-maximal inhibition (IC50) amounted to 69.9 µM.
On the same count and under the same terms, with `COP(=O)(OC)c1nc(-c2ccc(Br)cc2)oc1N1CCOCC1` [SJ000090176-1] the figure was 69.9 µM; with `O=C1c2ccccc2NC(c2ccc(Cl)cc2Cl)N1Cc1ccccc1` (stereo not drawn) [SJ000551164-1], 69.9 µM.
On the same count and under the same terms, with `O=C1c2ccccc2NC(c2ccc(F)cc2F)N1CCCN1CCOCC1` (stereo not drawn) [SJ000795275-1] the figure was 67.8 µM.
Turning to `COc1ccc(C2Nc3ccccc3C(=O)N2Cc2ccccc2)cc1Cn1nc(C)c(Cl)c1C` (stereo not drawn) [SJ000288637-1], the IC50 turned out to be 69.9 µM.
With `Clc1ccc2c(NCCCNCc3ccccc3)ccnc2c1` [SJ000361100-1], the IC50 amounted to 69.9 µM.
Consider `Cn1c2ccccc2c2cc(C(=O)NCC3CCC4(CCN(Cc5ccccn5)CC4)O3)ccc21` (stereo not drawn) [SJ000308489-1], for which the IC50 was 69.9 µM.
`Clc1ccc2c(NCCCNCc3c4ccccc4cc4ccccc34)ccnc2c1` [SJ000361122-2]: the IC50 worked out at 69.9 µM.
For `CC1CN(c2oc(-c3ccccc3F)nc2S(=O)(=O)c2ccc(F)cc2)CC(C)O1` (stereo not drawn) [SJ000329067-1], the IC50 was 27.3 µM.
Consider `O=C1c2ccccc2NC(c2ccc(Cl)cc2)N1Cc1ccccc1` (stereo not drawn) [SJ000019547-2], for which the IC50 came to 69.9 µM.
On the same count and under the same terms, with `COc1ccc(F)c(CNCCCNc2ccnc3cc(Cl)ccc23)c1` [SJ000521030-1] the figure was 69.9 µM; with `COc1cc(Cc2ccc3c(NCCCNCc4cccc5c4OCO5)ccnc3c2)cc(OC)c1` [SJ000311312-1], 31.3 µM; with `CCCn1c(=O)[nH]c(=O)c2c1nc(-c1ccc(Cl)cc1)n2CCOC` [SJ000424475-1], 69.9 µM.
As to `CCOc1cc(C2Nc3ccccc3C(=O)N2Cc2ccccc2)ccc1O` (stereo not drawn) [SJ000288432-1], the IC50 amounted to 69.9 µM.
Same read-out and setting: to `FC(F)(F)c1cccc(CNCCCNc2ccnc3cc(Cl)ccc23)c1` [SJ000521024-1] belongs 69.9 µM; to `Cc1cccc(NC2=C(Cl)C(=O)c3ccccc3C2=O)c1` [SJ000024925-1], 69.9 µM; to `O=C(Cn1cnc2cc(-c3ccc(Cl)cc3)sc2c1=O)NCc1ccccc1F` [SJ000455225-1], 69.9 µM.
Turning to `CCC(COC(C)=O)NC1=C(Cl)C(=O)c2ccccc2C1=O` (stereo not drawn) [SJ000149466-1], the IC50 came out at 17.2 µM.
The same measure, in the same setting: to `CN(C)c1ccc(NC2=C(Cl)C(=O)c3ccccc3C2=O)cc1` [SJ000109503-1] belongs 3.3 µM.
Same read-out and setting: with `CCCN1C(=O)c2ccccc2NC1c1cccc(O)c1O` (stereo not drawn) [SJ000395233-1] the figure was 69.9 µM.
On the same count and under the same terms, with `CCOc1ccc(N(C(C)=O)C2=C(N)C(=O)c3ccccc3C2=O)cc1` [SJ000558312-2] the figure was 65.7 µM.
`COc1cccc(Oc2ccc3c(NCCCNCc4cccc5c4OCO5)ccnc3c2)c1` [SJ000311216-1]: the IC50 turned out to be 36.9 µM.
Still for that read-out and setting: to `Cn1c(-c2ccc(Cl)cc2)nc2c1c(=O)[nH]c(=O)n2Cc1ccccc1` [SJ000384618-1] belongs 69.9 µM; to `NC1=C(Nc2ccccc2)C(=O)c2ccccc2C1=O` [SJ000562543-1], 60.8 µM.
For `COc1ccc(F)cc1CNCCCNc1ccnc2cc(-c3cccc4ccccc34)ccc12` [SJ000311277-1], the IC50 is 10.3 µM.
The same measure, in the same setting: with `C=C1C(Cl)=C(N2CCN(S(=O)(=O)c3ccc(Cl)cc3)CC2)C(=O)c2ccccc21` [SJ000029651-1] the figure was 69.9 µM; with `FC(F)(F)c1ccc2c(NCCCNCc3ccccc3C(F)(F)F)ccnc2c1` [SJ000521049-1], 69.9 µM.
On to `CCCn1c(-c2ccc(C#N)cc2)nc2c1c(=O)[nH]c(=O)n2Cc1ccccc1` [SJ000383781-1], for which the IC50 worked out at 69.9 µM.
Regarding `CC(C)c1ccc(-c2nc3c(=O)n(C)c(=O)n(C)c3[nH]2)cc1` [SJ000203904-1], the IC50 is 69.9 µM.
As for `CCCCn1c(=O)[nH]c(=O)c2c1nc(-c1ccc([N+](=O)[O-])cc1)n2CC` [SJ000378938-1], the IC50 stood at 69.9 µM.
Regarding `CC(C)(C)C(=O)CSc1nc2cc(-c3ccccc3)sc2c(=O)n1CCN1CCOCC1` [SJ000451590-1], the IC50 amounted to 69.9 µM.
For `CCN1CCN(Cc2ccc3c(c2)c2ccccc2n3CC)CC1` [SJ000142875-1], the IC50 is 69.9 µM.

The same assay, now with this note: Table 5, dose response TR-FRET screening of 59 quinoline compounds against MAGE-A11:PCF11; read-out: TR-FRET IC50.
As for `FC(F)(F)c1ccc(-c2ccc3c(NCCCNCc4ccco4)ccnc3c2)cc1` [SJ000311278-1], the IC50 worked out at 22.7 µM.
Still for that read-out and setting: with `CCCN(CCCNc1ccnc2cc(Cl)ccc12)Cc1ccc(CC)cc1` [SJ000523001-1] the figure was greater than 70 µM.
With `CCCCCCNCCCNc1ccnc2cc(C(F)(F)F)ccc12` [SJ000361124-1], the IC50 came out at 57.6 µM.
With `Clc1ccc2c(NCCCCN(Cc3ccccc3)Cc3csc4ccccc34)ccnc2c1` [SJ000520446-1], the IC50 was greater than 70 µM.

The same assay, now with this note: Table 8, representative compounds; read-out: TR-FRET IC50.
In the case of `COc1ccc(F)cc1CNCCCNc1ccnc2cc(C(F)(F)F)ccc12` [SJ000521052], the IC50 is 69.9 µM.
`c1cc(CNCCCNc2ccnc3cc(CC4CCCC4)ccc23)c2c(c1)OCO2` [SJ000311252]: the IC50 was 16 µM.
For the compound `COc1c2ccoc2nc2c(OC)c(OCC(O)C(C)O)ccc12` (stereo not drawn) [SJ000121402], the IC50 is greater than 69.9 µM.
Still for that read-out and setting: to `COc1ccc(F)cc1CNCCCNc1ccnc2cc(-c3cc(C(F)(F)F)cc(C(F)(F)F)c3)ccc12` [SJ000311273] belongs 7.69 µM; to `N#Cc1ccc(Cc2ccc3c(NCCCNCc4cccc5c4OCO5)ccnc3c2)cc1` [SJ000311304], 66 µM.
Turning to `COc1ccc(F)cc1CNCCCNc1ccnc2cc(CCC(C)C)ccc12` [SJ000311249], the IC50 turned out to be 69.9 µM.
In the case of `COc1cccc(Oc2ccc3c(NCCCNCc4cccc(OC)c4O)ccnc3c2)c1` [SJ000311215], the IC50 stood at 69.9 µM.
Same read-out and setting: with `c1ccc(CCc2ccc3c(NCCCNCc4cccc5c4OCO5)ccnc3c2)cc1` [SJ000311257] the figure was 62.3 µM; with `COc1cccc(CNCCCNc2ccnc3cc(-c4ccc(F)cc4)ccc23)c1O` [SJ000311239], 33.3 µM.
Turning to `FC(F)(F)c1cc(-c2ccc3c(NCCCNCc4cccc5c4OCO5)ccnc3c2)cc(C(F)(F)F)c1` [SJ000311272], the IC50 was determined as 9.02 µM.
Regarding `COc1ccc(C(F)(F)F)cc1CNCCCNc1ccnc2cc(Cl)ccc12` [SJ000521036], the IC50 is 69.9 µM.
Consider `FC(F)(F)Oc1ccc(CNCCCNc2ccnc3cc(C(F)(F)F)ccc23)cc1` [SJ000521050], for which the IC50 came to 69.9 µM.
